The test system of the assay is BDF1 mice, P388 leukemia ip, median survival T/C. Description: NCI In Vivo Anticancer Drug Screen. Data for tumor model P388 Leukemia (intraperitoneal) in B6D2F1 (BDF1) mice. As to conditions: endpoint: median survival time, higher = longer survival. As to the method:
The antitumor activity of compounds was measured in mice bearing transplantable tumors. Survival or tumor size were measured and the results are expressed as the measurement made in the treated group (T) divided by the measurement made in the vehicle treated control group (C). The tumor model used in this assay is P388 Leukemia (intraperitoneal) in B6D2F1 (BDF1) mice

Setting [1] is: dose: 100.0 mg/kg/injection, schedule: Q04DX003 (ip), vehicle: Klucel (hydroxypropylcellulose) (HPC).
[2] abbreviates: dose: 100.0 mg/kg/injection, schedule: Q01DX009 (ip), vehicle: Klucel (hydroxypropylcellulose) (HPC).
Where [3] appears, read: dose: 200.0 mg/kg/injection, schedule: Q04DX003 (ip), vehicle: Klucel (hydroxypropylcellulose) (HPC).
[4] abbreviates: dose: 400.0 mg/kg/injection, schedule: Q01DX009 (ip), vehicle: Klucel (hydroxypropylcellulose) (HPC).
The mark [5] stands for this setting: dose: 400.0 mg/kg/injection, schedule: Q04DX003 (ip), vehicle: Klucel (hydroxypropylcellulose) (HPC).
[6] abbreviates: dose: 200.0 mg/kg/injection, schedule: Q04DX003 (ip), vehicle: saline with Tween-80.
Setting [7] is: dose: 50.0 mg/kg/injection, schedule: Q01DX009 (ip), vehicle: saline with Tween-80.
The mark [8] stands for this setting: dose: 100.0 mg/kg/injection, schedule: Q01DX009 (ip), vehicle: saline with Tween-80.
The mark [9] stands for this setting: dose: 100.0 mg/kg/injection, schedule: Q04DX003 (ip), vehicle: saline with Tween-80.
Setting [10] is: dose: 200.0 mg/kg/injection, schedule: Q01DX009 (ip), vehicle: saline with Tween-80.
Setting [11] is: dose: 400.0 mg/kg/injection, schedule: Q01DX009 (ip), vehicle: saline with Tween-80.

Molecules are shown by their SMILES. Several values for one entry are separate records, joined by “and”; a condition that tells them apart may be missing. Identical values can stand only once. Toxic doses and inconclusive results are not listed. Residues, ends and D or L forms follow the SMILES beside them.

Regarding `NC(CSC(c1ccccc1)(c1ccccc1)c1ccccc1)C(=O)O` (centres undefined), the T/C reads like this: (dose: 3.0 mg/kg/injection, schedule: Q01DX009 (ip), vehicle: Klucel (hydroxypropylcellulose) (HPC)) 122 % of control; (dose: 4.8 mg/kg/injection, schedule: Q04DX003 (ip), vehicle: Klucel (hydroxypropylcellulose) (HPC)) 108 % of control; (dose: 7.2 mg/kg/injection, schedule: Q04DX003 (ip), vehicle: Klucel (hydroxypropylcellulose) (HPC)) 100 % of control; (dose: 10.0 mg/kg/injection, schedule: Q01DX009 (ip), vehicle: Klucel (hydroxypropylcellulose) (HPC)) 175 % of control; (dose: 14.4 mg/kg/injection, schedule: Q01DX009 (ip), vehicle: other) 150 % of control; (dose: 16.0 mg/kg/injection, schedule: Q01DX009 (ip), vehicle: Klucel (hydroxypropylcellulose) (HPC)) 177 % of control. The T/C is 115 % of control (dose: 24.0 mg/kg/injection, schedule: Q01DX009 (ip), vehicle: other); 200 % of control and 204 % of control (dose: 25.0 mg/kg/injection, schedule: Q01DX009 (ip), vehicle: Klucel (hydroxypropylcellulose) (HPC)); 231 % of control (dose: 25.0 mg/kg/injection, schedule: Q04DX003 (ip), vehicle: Klucel (hydroxypropylcellulose) (HPC)); 227 % of control (dose: 35.0 mg/kg/injection, schedule: Q01DX009 (ip), vehicle: Klucel (hydroxypropylcellulose) (HPC)); 123 % of control (dose: 40.0 mg/kg/injection, schedule: Q01DX009 (ip), vehicle: other); 86 % of control (dose: 50.0 mg/kg/injection, schedule: Q01DX009 (ip), vehicle: Klucel (hydroxypropylcellulose) (HPC)). The T/C runs as follows: (dose: 50.0 mg/kg/injection, schedule: Q04DX003 (ip), vehicle: Klucel (hydroxypropylcellulose) (HPC)) 186 % of control; (dose: 66.0 mg/kg/injection, schedule: Q04DX003 (ip), vehicle: saline) 272 % of control; under setting [1], 240 % of control; (dose: 100.0 mg/kg/injection, schedule: Q04DX003 (ip), vehicle: saline) 90 % of control.

With `CC(=O)Nc1ccc2c([N+](=O)[O-])cccc2c1-c1c(NC(C)=O)ccc2c([N+](=O)[O-])cccc12`, the T/C reads like this: under setting [2], 110 % of control; under setting [1], 109 % of control; under setting [3], 100 % of control; under setting [4], 95 % of control; under setting [5], 100 % of control.

As for `COC1OC(CO)C(O)C(O)C1O` (centres undefined), the T/C is, setting by setting: (dose: 6.25 mg/kg/injection, schedule: Q01DX009 (ip), vehicle: saline) 97 % of control; (dose: 12.5 mg/kg/injection, schedule: Q01DX009 (ip), vehicle: saline) 106 % of control; (dose: 25.0 mg/kg/injection, schedule: Q01DX009 (ip), vehicle: saline) 97 % of control; (dose: 100.0 mg/kg/injection, schedule: Q01DX009 (ip), vehicle: saline) 104 % of control; (dose: 200.0 mg/kg/injection, schedule: Q01DX009 (ip), vehicle: saline) 106 % of control.

Regarding `CC1=CC2=C(C=O)C(=O)[C@](C)(O)[C@@H](O)C2=CO1`, the T/C reads like this: (dose: 44.0 mg/kg/injection, schedule: Q04DX003 (ip), vehicle: Klucel (hydroxypropylcellulose) (HPC)) 101 % of control; (dose: 44.0 mg/kg/injection, schedule: Q04DX003 (ip), vehicle: saline with Tween-80) 108 % of control and 114 % of control; (dose: 66.0 mg/kg/injection, schedule: Q04DX003 (ip), vehicle: Klucel (hydroxypropylcellulose) (HPC)) 115 % of control; (dose: 66.0 mg/kg/injection, schedule: Q04DX003 (ip), vehicle: saline with Tween-80) 116 % of control; under setting [1], 108 % of control; (dose: 150.0 mg/kg/injection, schedule: Q04DX003 (ip), vehicle: saline with Tween-80) 108 % of control. The T/C under setting [6] is 95 % of control.

As for `COc1ccc(CC(=O)Cc2ccc(OC)c(OC)c2)cc1OC`, the T/C (dose: 25.0 mg/kg/injection, schedule: Q01DX009 (ip), vehicle: saline with Tween-80) was 104 % of control; the T/C under setting [7] was 113 % of control; the T/C under setting [8] was 113 % of control and 123 % of control; the T/C under setting [9] is 109 % of control; the T/C under setting [10] was 95 % of control and 120 % of control; the T/C under setting [6] is 104 % of control. Also, the T/C reads like this: under setting [11], 118 % of control; (dose: 400.0 mg/kg/injection, schedule: Q04DX003 (ip), vehicle: saline with Tween-80) 90 % of control.

`CCOC(=O)C(N=C=S)C(C)CC` (centres undefined): the T/C (dose: 100.0 mg/kg/injection, schedule: Q01DX001 (ip), vehicle: saline with Tween-80) is 115 % of control; the T/C (dose: 200.0 mg/kg/injection, schedule: Q01DX001 (ip), vehicle: saline with Tween-80) is 107 % of control; the T/C (dose: 400.0 mg/kg/injection, schedule: Q01DX001 (ip), vehicle: saline with Tween-80) was 118 % of control.

For `COc1ccc(-c2c(CC(=O)O)c3cc(OC)ccc3n2Cc2ccc(Cl)cc2)cc1`, the T/C was 90 % of control under setting [8], 113 % of control under setting [10] and 90 % of control under setting [11].

As to `COC1C(CO)OC(n2cnc3c(=S)nc(N)[nH]c32)C1O` (centres undefined), the T/C was 104 % of control under setting [9]; 104 % of control under setting [6]; 122 % of control (dose: 600.0 mg/kg/injection, schedule: Q04DX003 (ip), vehicle: saline with Tween-80).

As to `CC(=O)NC(Cc1ccccc1)C(=O)NC(CCCN=C(N)N)C(=O)O` (stereo not drawn) (Ac-Phe-Arg-OH; configuration not given here), the T/C runs as follows: (dose: 50.0 mg/kg/injection, schedule: Q01DX005 (ip), vehicle: saline) 108 % of control; (dose: 100.0 mg/kg/injection, schedule: Q01DX005 (ip), vehicle: saline) 115 % of control; (dose: 200.0 mg/kg/injection, schedule: Q01DX005 (ip), vehicle: saline) 105 % of control.

As to `COC(=O)/C=C1/C(=O)N(C)c2ccccc21`, the T/C by setting is: under setting [7], 122 % of control; under setting [8], 98 % of control; under setting [10], 104 % of control.

As for `CC(Oc1ccccc1-c1ccccc1)C(=O)N(C)C` (centres undefined), the T/C was 100 % of control (dose: 12.5 mg/kg/injection, schedule: Q01DX009 (ip), vehicle: saline with Tween-80); 121 % of control and 124 % of control under setting [7]; 97 % of control and 105 % of control under setting [8]; 112 % of control under setting [10].

Regarding `O=c1cn[nH]c(=O)[nH]1`, the T/C is, setting by setting: (dose: 62.5 mg/kg/injection, schedule: Q01DX010 (ip), vehicle: saline) 100 % of control; (dose: 125.0 mg/kg/injection, schedule: Q01DX010 (ip), vehicle: saline) 100 % of control; (dose: 250.0 mg/kg/injection, schedule: Q01DX010 (ip), vehicle: saline) 100 % of control; (dose: 500.0 mg/kg/injection, schedule: Q01DX010 (ip), vehicle: saline) 95 % of control.

`CCC(C)(OC(C)=O)C(=O)O[C@H]1C(=O)O[C@@H]2C[C@H]3C(C)=CC(=O)[C@@H](O)[C@]3(C)[C@H]3[C@@]4(O)OC[C@]32[C@@H]1[C@@H](C)[C@H]4O` (some centres undefined): the T/C reads like this: (dose: 0.25 mg/kg/injection, schedule: Q01DX009 (ip), vehicle: saline) 119 % of control; (dose: 1.25 mg/kg/injection, schedule: Q01DX009 (ip), vehicle: saline) 157 % of control; (dose: 2.0 mg/kg/injection, schedule: Q01DX009 (ip), vehicle: saline) 121 % of control; (dose: 5.0 mg/kg/injection, schedule: Q01DX009 (ip), vehicle: saline) 123 % of control.

On to `O=C(NCCO)c1cc2ccccc2cc1O`, for which the T/C runs as follows: under setting [2], 90 % of control; under setting [1], 104 % of control; (dose: 200.0 mg/kg/injection, schedule: Q01DX009 (ip), vehicle: Klucel (hydroxypropylcellulose) (HPC)) 100 % of control; under setting [3], 100 % of control; under setting [4], 100 % of control; under setting [5], 100 % of control.

The values are drawn from PubChem BioAssay AID328 (DTP/NCI, 2004).
